Experimental data published in patent US20260365653A1, “IRREVERSIBLE MUTEGFR INHIBITORS” (Bayer Aktiengesellschaft, priority 2022, published 2026).

How the values were obtained:
[1] = molecular target: T1, mutEGFR (D770_N771insSVD) (Homo sapiens, UniProt P00533, DUP768-770); assay: Exon20-Mutant-EGFR (D770_N771insSVD) kinase assay (TR-FRET); format: biochemical; conditions: mutEGFR (D770_N771insSVD) kinase assay IC50, Table 2a; D770_N771insSVD; 2 mM ATP
T1 construct: GST-EGFR #3 (SVD between D770 and N771); made in house; host or cells: Sf9 insect cells (baculovirus)

BA/F3 (insSVD) cells = assay: Ba/F3-EGFR-insSVD cell survival assay (Cell Titer-Glo); format: cell-based; conditions: Table 3a, cell survival, Cell Titer-Glo, with 10 ng/ml EGF, without IL-3
Description: Cellular Data Description (WT, insSVD, insSVD T790M) 293T cells from ATCC were transfected with pBABEpuro expression constructs for WT EGFR or EGFR-insSVD, or EGFR-insSVD T790M, and pCL-Eco packaging vector using Fugene-6 transfection reagent from Promega. Plates were incubated at 37° C. for 48 h. Retrovirus was harvested by filtering the media supernatant through a 0.45 μm filter.
Ba/F3 cells purchased from DSMZ were grown in RPMI+10% FBS+10 ng/ml IL-3 and infected with filtered retroviral supernatant at a 1:2 dilution. Polybrene was added to a concentration of 8 μg/mL, plates were spun for 90 min, and incubated for 16 h at 37° C. 2 μg/mL puromycin was added to the infected cells 24 h after infection and cells were continually grown in the presence of puromycin and 10 ng/ml IL-3. Following stably expressing Ba/F3 cell lines were generated: Ba/F3-EGFR-WT, Ba/F3-EGFR-insSVD, Ba/F3-EGFR-insSVD T790M, (Ba/F3-vector-control).
For cell survival assays, Ba/F3 cells were grown to a density of 1-2 million cells per mL, spun down and resuspended in media without IL-3, and replated at a concentration of 200,000-500,000 cells per mL. The cells ectopically expressing WT EGFR, EGFR-insSVD, or EGFR-insSVD T790M were plated with 10 ng/ml Millipore Culture grade EGF. The cells ectopically expressing pBABEpuro empty vector were plated with 10 ng/mL IL-3.
2 days later, cells were plated in 50 µL in a 384 well plate at a concentration of 4000 cells per well for cells assayed in the absence of IL-3 and 2000 cells per well for cells assayed in the presence of IL-3. 100 nL of compound was added to each well using a 100 nL pin head, and plates were incubated at 37° C. for 48 h.
Cell viability was measured by adding 20 μL of Cell Titer-Glo Luminescent Cell Viability Reagent diluted 1:3 in PBS. Plates were sealed with Perkin Elmer Top-Seal, inverted several times to mix, and immediately centrifuged at 1000 rpm for 2 min. Plates were incubated in low light conditions for 8-10 min and luminescence was measured.

[2] = molecular target: T2, mutEGFR (D770_N771insNPG, T790) (Homo sapiens, UniProt P00533, INS770NPG/T790M); assay: mutEGFR (D770_N771insNPG, T790) kinase assay; format: biochemical; conditions: Table 2a, D770_N771insNPG
T2 construct: exact insNPG construct not described; in-house EGFR proteins were N-terminal GST fusions from baculovirus/insect cells (borders R669-A1210 given only for WT, insSVD, insASV)
Description: The different EGFR proteins used in the biochemical kinase activity inhibition assays were generated inhouse by expression in insect cells using Baculo Virus system and subsequent purification as described in the following paragraphs.
The cDNAs encoding the various protein sequences from human EGFR human (P00533) were optimized for expression in eukaryotic cells and synthesized by the GeneArt Technology at Life Technologies.

T1 sequence (P00533 with tags, fused parts or gaps DUP768-770): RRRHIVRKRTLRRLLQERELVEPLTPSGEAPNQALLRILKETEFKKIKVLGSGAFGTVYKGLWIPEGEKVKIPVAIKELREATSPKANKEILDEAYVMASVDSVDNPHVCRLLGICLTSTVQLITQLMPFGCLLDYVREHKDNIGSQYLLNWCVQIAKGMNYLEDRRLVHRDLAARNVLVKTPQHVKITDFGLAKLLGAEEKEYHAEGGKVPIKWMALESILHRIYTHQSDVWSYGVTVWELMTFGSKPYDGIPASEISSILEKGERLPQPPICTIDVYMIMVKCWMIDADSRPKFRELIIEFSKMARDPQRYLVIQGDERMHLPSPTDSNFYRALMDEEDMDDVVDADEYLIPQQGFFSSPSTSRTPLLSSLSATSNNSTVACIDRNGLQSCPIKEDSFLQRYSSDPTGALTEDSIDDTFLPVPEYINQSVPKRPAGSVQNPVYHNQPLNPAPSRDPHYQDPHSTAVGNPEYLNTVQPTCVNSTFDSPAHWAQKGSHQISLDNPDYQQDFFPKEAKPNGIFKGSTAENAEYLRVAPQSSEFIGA
T2 sequence (P00533 with tags, fused parts or gaps INS770NPG/T790M limits assumed): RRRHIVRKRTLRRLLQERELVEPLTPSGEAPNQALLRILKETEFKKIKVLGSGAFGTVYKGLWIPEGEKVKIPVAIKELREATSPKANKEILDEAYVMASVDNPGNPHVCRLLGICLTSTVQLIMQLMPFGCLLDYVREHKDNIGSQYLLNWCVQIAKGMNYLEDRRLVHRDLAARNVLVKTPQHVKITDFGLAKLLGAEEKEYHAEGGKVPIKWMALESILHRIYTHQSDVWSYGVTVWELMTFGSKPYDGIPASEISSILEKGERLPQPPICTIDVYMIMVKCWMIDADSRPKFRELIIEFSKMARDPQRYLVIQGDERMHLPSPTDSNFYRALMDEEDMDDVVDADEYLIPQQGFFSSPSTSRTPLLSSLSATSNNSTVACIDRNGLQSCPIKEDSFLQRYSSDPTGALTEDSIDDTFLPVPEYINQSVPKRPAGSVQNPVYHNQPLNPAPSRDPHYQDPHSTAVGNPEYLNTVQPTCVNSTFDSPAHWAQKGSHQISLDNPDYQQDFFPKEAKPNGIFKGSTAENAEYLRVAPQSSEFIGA

Row | Structure (SMILES) | IC50 [1] [nM] | IC50 (BA/F3 (insSVD) cells; Mus musculus, BaF3, 48 h) [nM] | IC50 [2] [nM] | IC50 (BA/F3 (insSVD) cells; 48 h) [nM]
1 | CC(C)(C)OC(=O)N1CCCC1C#CC(=O)N1CCn2nc(-c3ccc(F)cc3)c(-c3ccncc3)c2C1 (racemic) [Example 87, tert-butyl(2RS)-2-(3-[2-(4-fluorophenyl)-3-(pyridin-4-yl)-6,7-dihydropyrazolo[1,5-a]pyrazin-5(4H)-yl]-3-oxoprop-1-yn-1-yl) pyrrolidine-1-carboxylate] | 53.1 | 1060 | 82.5 | 
2 | O=C(C#CC1CCCN1)N1CCn2nc(-c3ccc(F)cc3)c(-c3ccncc3)c2C1 (racemic) [Example 88, 1-[2-(4-fluorophenyl)-3-(pyridin-4-yl)-6,7-dihydropyrazolo[1,5-a]pyrazin-5(4H)-yl]-3-[(2RS)-pyrrolidin-2-yl]prop-2-yn-1-one] | 9.27 | 3790 | 15.8 | 
3 | CN(C)C/C=C/C(=O)N1Cc2c(-c3ccncc3)c(-c3ccc(F)cc3)nn2C(CO)C1 (racemic) [Example 201, rac-(R,E)-4-(dimethylamino)-1-(2-(4-fluorophenyl)-7-(hydroxymethyl)-3-(pyridin-4-yl)-6,7-dihydropyrazolo[1,5-a]pyrazin-5(4H)-yl) but-2-en-1-one] | 1.67 | 423 | 3.42 | 
4 | CN(C)C/C=C/C(=O)N1Cc2c(-c3ccncc3)c(-c3ccc(F)cc3)nn2C(C(N)=O)C1 (racemic) [Example 202, (7RS)-5-[(2E)-4-(dimethylamino)but-2-enoyl]-2-(4-fluorophenyl)-3-(pyridin-4-yl)-4,5,6,7-tetrahydropyrazolo[1,5-a]pyrazine-7-carboxamide] | 57.4 | 9980 | 225 | 
5 | C=CC(=O)N1Cc2c(-c3ccncc3)c(-c3ccc(F)cc3)nn2C(C(N)=O)C1 (racemic) [Example 204, (7RS)-5-acryloyl-2-(4-fluorophenyl)-3-(pyridin-4-yl)-4,5,6,7-tetrahydropyrazolo[1,5-a]pyrazine-7-carboxamide] | 4.61 | 134 | 17.2 | 
6 | CN(C)C/C=C/C(=O)N1Cc2c(-c3ccncc3)c(-c3ccc(F)cc3)nn2C(CCO)C1 (racemic) [Example 219, rac-(R,E)-4-(dimethylamino)-1-(2-(4-fluorophenyl)-7-(2-hydroxyethyl)-3-(pyridin-4-yl)-6,7-dihydropyrazolo[1,5-a]pyrazin-5(4H)-yl) but-2-en-1-one] | 0.715 | 308 | 1.21 | 
7 | CN(C)C/C=C/C(=O)N1Cc2c(-c3ccncc3)c(-c3ccc(F)cc3)nn2C(CC(N)=O)C1 (racemic) [Example 220, 2-[(7RS)-5-[(2E)-4-(dimethylamino)but-2-enoyl]-2-(4-fluorophenyl)-3-(pyridin-4-yl)-4,5,6,7-tetrahydropyrazolo[1,5-a]pyrazin-7-yl]acetamide] | 4.15 | 5880 | 9.66 | 
8 | CNC(=O)CC1CN(C(=O)/C=C/CN(C)C)Cc2c(-c3ccncc3)c(-c3ccc(F)cc3)nn21 (racemic) [Example 221, 2-[(7RS)-5-[(2E)-4-(dimethylamino)but-2-enoyl]-2-(4-fluorophenyl)-3-(pyridin-4-yl)-4,5,6,7-tetrahydropyrazolo[1,5-a]pyrazin-7-yl]-N-methylacetamide] | 3.69 | 2510 | 15.3 | 
9 | C=CC(=O)N1C(C)c2c(-c3ccncc3)c(-c3ccc(Cl)cc3F)nn2C[C@H]1C (single isomer, unassigned; isomer 1) [Example 290] | 1180 |  |  | 3430
10 | C=CC(=O)N1C(C)c2c(-c3ccncc3)c(-c3ccc(Cl)cc3F)nn2C[C@H]1C (single isomer, unassigned; isomer 2) [Example 291] | 1.11 |  |  | 53
11 | CNC/C=C/C(=O)N1CCn2nc(-c3ccc(F)cc3)c(-c3ccncc3)c2C1 [Example 80, (2E)-1-[2-(4-fluorophenyl)-3-(pyridin-4-yl)-6,7-dihydropyrazolo[1,5-a]pyrazin-5(4H)-yl]-4-(methylamino)but-2-en-1-one] | 19.4 | 1370 |  | 
12 | CCNC/C=C/C(=O)N1CCn2nc(-c3ccc(F)cc3)c(-c3ccncc3)c2C1 [Example 81, (2E)-4-(ethylamino)-1-[2-(4-fluorophenyl)-3-(pyridin-4-yl)-6,7-dihydropyrazolo[1,5-a]pyrazin-5(4H)-yl]but-2-en-1-one] | 4.15 | 134 |  | 
13 | CN1CCN(C/C=C/C(=O)N2CCn3nc(-c4ccc(F)cc4)c(-c4ccncc4)c3C2)CC1 [Example 82, (2E)-1-[2-(4-fluorophenyl)-3-(pyridin-4-yl)-6,7-dihydropyrazolo[1,5-a]pyrazin-5(4H)-yl]-4-(4-methylpiperazin-1-yl) but-2-en-1-one] | 29.6 | 739 |  | 
14 | C=CC(=O)N1CCn2nc(-c3cccc(CO)c3)c(-c3ccncc3)c2C1 [Example 121, 1-{2-[3-(hydroxymethyl)phenyl]-3-(pyridin-4-yl)-6,7-dihydropyrazolo[1,5-a]pyrazin-5(4H)-yl}prop-2-en-1-one] | 1.88 | 213 |  | 
15 | C=CC(=O)N1Cc2c(-c3ccncc3)c(-c3ccc(C(F)(F)F)cc3F)nn2C[C@H]1C [Example 125, 1-[(6R)-2-[2-fluoro-4-(trifluoromethyl)phenyl]-6-methyl-3-(pyridin-4-yl)-6,7-dihydropyrazolo[1,5-a]pyrazin-5(4H)-yl]prop-2-en-1-one] | 1.12 | 45.5 |  | 
16 | CN(C/C=C/C(=O)N1CCn2nc(-c3ccc(Cl)cc3)c(-c3ccncc3)c2C1)CCO [Example 170, (2E)-1-[2-(4-chlorophenyl)-3-(pyridin-4-yl)-6,7-dihydropyrazolo[1,5-a]pyrazin-5(4H)-yl]-4-[(2-hydroxyethyl)(methyl)amino]but-2-en-1-one] | 0.38 | 190 |  | 
17 | C=CC(=O)N1CCn2nc(-c3cccc(Cl)c3F)c(-c3ccnc4[nH]cc(C)c34)c2C1 [Example 176, 1-[2-(3-chloro-2-fluorophenyl)-3-(3-methyl-1H-pyrrolo[2,3-b]pyridin-4-yl)-6,7-dihydropyrazolo[1,5-a]pyrazin-5(4H)-yl]prop-2-en-1-one] | 166 | 62.7 |  | 
18 | C=CC(=O)N1CCn2nc(-c3cccc(C(F)(F)F)c3)c(-c3ccnc4[nH]cc(C)c34)c2C1 [Example 178, 1-(3-(3-methyl-1H-pyrrolo[2,3-b]pyridin-4-yl)-2-(3-(trifluoromethyl)phenyl)-6,7-dihydropyrazolo[1,5-a]pyrazin-5(4H)-yl) prop-2-en-1-one] | 207 | 58.6 |  | 
19 | C=CC(=O)N1CCn2nc(-c3ccc4cc(F)sc4c3)c(-c3ccnc4[nH]cc(C)c34)c2C1 [Example 181, 1-[2-(2-fluoro-1-benzothiophen-6-yl)-3-(3-methyl-1H-pyrrolo[2,3-b]pyridin-4-yl)-6,7-dihydropyrazolo[1,5-a]pyrazin-5(4H)-yl]prop-2-en-1-one] | 59.6 | 64.1 |  | 
20 | Cc1c[nH]c2nccc(-c3c(-c4cccc(C(F)(F)F)c4)nn4c3CN(C(=O)/C=C/CN(C)C)CC4)c12 [Example 185, (E)-4-(dimethylamino)-1-(3-(3-methyl-1H-pyrrolo[2,3-b]pyridin-4-yl)-2-(3-(trifluoromethyl)phenyl)-6,7-dihydropyrazolo[1,5-a]pyrazin-5(4H)-yl) but-2-en-1-one] | 233 | 68.8 |  | 
21 | Cc1c[nH]c2nccc(-c3c(-c4ccc5cc(F)sc5c4)nn4c3CN(C(=O)/C=C/CN(C)C)CC4)c12 [Example 187, (2E)-4-(dimethylamino)-1-[2-(2-fluoro-1-benzothiophen-6-yl)-3-(3-methyl-1H-pyrrolo[2,3-b]pyridin-4-yl)-6,7-dihydropyrazolo[1,5-a]pyrazin-5(4H)-yl]but-2-en-1-one] | 30 |  |  | 
